Reference: paper PMC10349806 (Nature Communications, 2023)
“And” between values parts separate entries of the source, which are not always exact repeats. Equal values may be shown once.

Target: PfCRT^Dd2 (Plasmodium falciparum, UniProt Q9N623, A220S/I356T/K76T/M74I/N326S/N75E/Q271E/R371I)
Experiment: Drug uptake assay, X. laevis oocytes expressing PfCRT^Dd2
Format: cell-based
Settings: for v-1 pH 4.5 / v-1 pH 5.0 / v-1 pH 5.5 / v-1 pH 6.0: Lineweaver-Burk
Experimental: Oocytes were obtained as described previously. Briefly, adult (>2 years old) female X. laevis frogs (NASCO) were anesthetized in a cooled solution of ethyl 3-amino benzoate methanesulfonate (0.1%, w/v), followed by a surgical removal of parts of the ovary. The ovary lobes were carefully dissected and small pieces of oocytes were incubated in Ca^2+-free ND96 buffer (96 mM NaCl, 2 mM KCl, 1 mM MgCl2 buffered with 5 mM HEPES/NaOH, pH 7.5) supplemented with collagenase D (0.1%, w/v; Roche), BSA (0.5%, w/v), and 9 mm Na2HPO4 at 18 °C for 14-16 h while gentle shaking. After incubation, the oocytes were carefully washed several times with ND96 buffer (96 mM NaCl, 2 mM KCl, 1.8 mM CaCl2, 1 mM MgCl2 buffered with 5 mM HEPES/NaOH, pH 7.5) supplemented with 100 mg l^−1 gentamycin). Defolliculated and healthy-looking stage V-VI oocytes were manually selected for RNA microinjection. The RNA was generated as following: The codon-optimized sequences of PfCRT variants were cloned into the pSP64T expression vector. After vector linearization using the restriction endonucleases BamHI or SalI (New England Biolabs), transcription was performed using the in vitro SP6 mMessage mMachine Kit (Ambion)[34]. The obtained RNA was kept at −80 °C and diluted with nuclease-free water to a concentration of 0.6 μg μl^−1. Precision-bore glass capillary tubes (3.5-inch glass capillaries; Drummond Scientific Co.) were pulled on a vertical puller (P-87 Flaming/Brown micropipette puller, Sutter Instrument Co.), graduated, and placed on a microinjector (Nanoject II Auto-Nanoliter Injector, Drummond Scientific Co.). 50 nl of nuclease-free water alone (control oocytes) or 50 nl of 0.6 μg μl^−1 RNA were injected under stereomicroscopic control. Injected oocytes were incubated for 46–72 h at 18 °C with twice-daily buffer changes before usage in experiments.
Drug uptake assays were performed as described previously[21],[22],[24],[34]. […] The direction of radio-labeled drug transport is here from the mostly acidic extracellular solution (pH 4.5 or 6.0, as indicated) into the oocyte cytosol (pH ∼ 7.2), which corresponds to the efflux of drug from the acidic digestive vacuole (pH 5.2) into the parasite cytoplasm (pH 7.2). The topology of PfCRT in the oolemma is such that both the N- and C-terminus face the extracellular milieu[3],[22]. In the parasite, the N- and C-terminus face the lumen of the digestive vacuole. […] For determination of the amount of drug uptake for each oocyte, the reaction medium was removed and the oocytes were washed three times with 2 ml of ice-cold ND96 buffer. Each oocyte was individually transferred to a scintillation vial containing 5% sodium dodecyl sulfate (200 μl) for lysis. […] Oocytes that were injected with water instead of RNA were analyzed in parallel, representing the uptake of a drug by diffusion and/or endogenous permeation pathways. The resulting value represents the “background“ level of drug accumulation in oocytes (in-depth discussion in[22]). The specific PfCRT-mediated uptake was determined by subtracting the corresponding background value measured in water-injected oocytes from that of PfCRT-expressing oocytes. In all cases, at least three separate experiments were performed on oocytes from different frogs (biological replicate), and for each condition in an experiment, measurements were made from 10 oocytes per treatment. For pH 5.5, 6.0, and 6.5, ND96 was buffered with 5 mM MES/Tris base. For pH 4.5, 5 mM Homo-Pipes was used as a buffer and 5 mM HEPES for uptake at pH 7.0.

Sequence of PfCRT^Dd2 (Q9N623 whole entry A220S/I356T/K76T/M74I/N326S/N75E/Q271E/R371I): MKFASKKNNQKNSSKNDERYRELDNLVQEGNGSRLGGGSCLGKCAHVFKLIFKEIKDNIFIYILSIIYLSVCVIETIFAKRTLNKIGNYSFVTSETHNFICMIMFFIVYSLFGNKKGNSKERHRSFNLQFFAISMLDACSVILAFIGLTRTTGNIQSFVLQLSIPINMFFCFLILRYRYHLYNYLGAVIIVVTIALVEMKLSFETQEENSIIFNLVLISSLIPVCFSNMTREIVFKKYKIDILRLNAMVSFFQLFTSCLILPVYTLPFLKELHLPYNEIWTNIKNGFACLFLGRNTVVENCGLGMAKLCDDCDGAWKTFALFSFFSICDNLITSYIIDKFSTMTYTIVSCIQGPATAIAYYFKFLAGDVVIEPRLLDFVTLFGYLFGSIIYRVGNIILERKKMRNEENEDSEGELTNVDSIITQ

With CCN(CC)CCCC(C)Nc1ccnc2cc(Cl)ccc12 (centres unmarked) [CQ, chloroquine] the “PfCRTDd2-mediated CQ transport activity” value (300 µM CQ, time 90 min) was 21.08 pmol oocyte-1, the “v-1 pH 4.5” value (300 µM CQ) was 0.11 (pmol oocyte-1 h-1)-1 and the “v-1 pH 5.0” value (300 µM CQ) was 0.09 (pmol oocyte-1 h-1)-1. The “v-1 pH 5.5” value (300 µM CQ) was 0.08 (pmol oocyte-1 h-1)-1, the “v-1 pH 6.0” value (300 µM CQ) was 0.0649 (pmol oocyte-1 h-1)-1 and the PfCRTDd2 transport activity (400 µM CQ, pH 4.5, 60 min) was 9.19 pmol oocyte-1 h-1 and 9.21 pmol oocyte-1 h-1 and 9.15 pmol oocyte-1 h-1 and 10.13 pmol oocyte-1 h-1 and 7.52 pmol oocyte-1 h-1 and 9.96 pmol oocyte-1 h-1. For the same compound, the PfCRTDd2 transport activity (400 µM CQ, pH 5.0, 60 min) was 11.32 pmol oocyte-1 h-1, the “PfCRTDd2 transport activity 400 µM CQ pH 5.0” value (400 µM CQ, pH 5.0, individual replicates (Fig 4a)) was 11.40 pmol oocyte-1 h-1 and 11.89 pmol oocyte-1 h-1 and 10.67 pmol oocyte-1 h-1 and the PfCRTDd2 transport activity (400 µM CQ, pH 5.5, 60 min) was 13.77 pmol oocyte-1 h-1. The “PfCRTDd2 transport activity 400 µM CQ pH 5.5” value (400 µM CQ, pH 5.5, individual replicates (Fig 4a)) was 14.89 pmol oocyte-1 h-1 and 13.71 pmol oocyte-1 h-1 and 13.31 pmol oocyte-1 h-1, the PfCRTDd2 transport activity (400 µM CQ, pH 6.0, 60 min) was 19.62 pmol oocyte-1 h-1 and 19.38 pmol oocyte-1 h-1 and 19.10 pmol oocyte-1 h-1 and 20.37 pmol oocyte-1 h-1 and the “PfCRTDd2 transport activity 400 µM CQ pH 6.0” value (400 µM CQ, pH 6.0, individual replicates (Fig 4a)) was 19.38 pmol oocyte-1 h-1 and 19.10 pmol oocyte-1 h-1 and 20.37 pmol oocyte-1 h-1. For the same compound, the “PfCRTDd2-mediated CQ transport activity” value (400 µM CQ, time 0 min) was 0.00 pmol oocyte-1, the “PfCRTDd2-mediated CQ transport activity” value (400 µM CQ, time 30 min) was 11.37 pmol oocyte-1 and the “PfCRTDd2-mediated CQ transport activity” value (400 µM CQ, time 60 min) was 18.93 pmol oocyte-1. The “PfCRTDd2-mediated CQ transport activity” value (400 µM CQ, time 90 min) was 23.37 pmol oocyte-1, the “v-1 pH 4.5” value (400 µM CQ) was 0.11 (pmol oocyte-1 h-1)-1 and the “v-1 pH 5.0” value (400 µM CQ) was 0.09 (pmol oocyte-1 h-1)-1. The “v-1 pH 5.5” value (400 µM CQ) was 0.07 (pmol oocyte-1 h-1)-1, the “v-1 pH 6.0” value (400 µM CQ) was 0.05 (pmol oocyte-1 h-1)-1 and the PfCRTDd2 transport activity (500 µM CQ, pH 4.5, 60 min) was 9.38 pmol oocyte-1 h-1 and 9.85 pmol oocyte-1 h-1 and 9.73 pmol oocyte-1 h-1 and 10.40 pmol oocyte-1 h-1 and 7.53 pmol oocyte-1 h-1. The “PfCRTDd2 transport activity 500 µM CQ pH 4.5” value (500 µM CQ, pH 4.5, individual replicates (Fig 4a)) was 9.85 pmol oocyte-1 h-1 and 9.73 pmol oocyte-1 h-1 and 10.40 pmol oocyte-1 h-1 and 7.53 pmol oocyte-1 h-1, the PfCRTDd2 transport activity (500 µM CQ, pH 5.0, 60 min) was 11.35 pmol oocyte-1 h-1 and the “PfCRTDd2 transport activity 500 µM CQ pH 5.0” value (500 µM CQ, pH 5.0, individual replicates (Fig 4a)) was 12.28 pmol oocyte-1 h-1. For the same compound, the PfCRTDd2 transport activity (500 µM CQ, pH 5.5, 60 min) was 14.75 pmol oocyte-1 h-1, the “PfCRTDd2 transport activity 500 µM CQ pH 5.5” value (500 µM CQ, pH 5.5, individual replicates (Fig 4a)) was 14.32 pmol oocyte-1 h-1 and 15.56 pmol oocyte-1 h-1 and 14.38 pmol oocyte-1 h-1 and 14.75 pmol oocyte-1 h-1 and the PfCRTDd2 transport activity (500 µM CQ, pH 6.0, 60 min) was 20.73 pmol oocyte-1 h-1 and 20.81 pmol oocyte-1 h-1 and 20.59 pmol oocyte-1 h-1 and 20.78 pmol oocyte-1 h-1. For the same compound, the “PfCRTDd2 transport activity 500 µM CQ pH 6.0” value (500 µM CQ, pH 6.0, individual replicates (Fig 4a)) was 20.81 pmol oocyte-1 h-1 and 20.59 pmol oocyte-1 h-1 and 20.78 pmol oocyte-1 h-1, the “PfCRTDd2-mediated CQ transport activity” value (500 µM CQ, time 0 min) was 0.00 pmol oocyte-1 and the “PfCRTDd2-mediated CQ transport activity” value (500 µM CQ, time 30 min) was 18.55 pmol oocyte-1. The “PfCRTDd2-mediated CQ transport activity” value (500 µM CQ, time 60 min) was 25.91 pmol oocyte-1, the “PfCRTDd2-mediated CQ transport activity” value (500 µM CQ, time 90 min) was 27.18 pmol oocyte-1 and the “v-1 pH 4.5” value (500 µM CQ) was 0.11 (pmol oocyte-1 h-1)-1. For the same compound, the “v-1 pH 5.0” value (500 µM CQ) was 0.09 (pmol oocyte-1 h-1)-1 and the “v-1 pH 5.5” value (500 µM CQ) was 0.07 (pmol oocyte-1 h-1)-1.
